Source: patent US20060156419A1, “Mouse model for autoimmune disorders” (THE WISTAR INSTITUTE of ANATOMY and BIOLOGY, priority 2002, published 2006)
Like-named read-outs stand apart in the source and are kept apart here.

Tests used:
TS1(SW) T cell receptor [1] = experiment: Proliferation of TS1(SW) CD4+ T cells in response to graded doses of peptide; format: cell-based, mouse; conditions: for EC50: read-out: half maximal stimulation
TS1 T cell receptor = experiment: Proliferation of TS1 CD4+ T cells in response to graded doses of peptide; format: cell-based, mouse
TS1(SW) T cell receptor [2] = conditions: Jordan et al, 2001; cited from earlier work

Row | Sequence | EC50 (TS1(SW) T cell receptor [1]; CD4+ T cells of TS1(SW) TCR transgenic mice, proliferation, FIG. 7) [µM] | binding affinity of TS1(SW) T cell receptor (in words) (TS1(SW) T cell receptor [1]; FIG. 7B) | binding affinity of TS1 T cell receptor (in words) (TS1 T cell receptor; FIG. 7A) | affinity for the TS1(SW) TCR, fold lower than for S1(SW) peptide (TS1(SW) T cell receptor [1]) | binding affinity of TS1(SW) T cell receptor (in words) (TS1(SW) T cell receptor [1]) | fold higher concentrations of S1 peptide needed to reach half-maximal stimulation (TS1(SW) T cell receptor [1]) | EC50 (TS1(SW) T cell receptor [1]) [µM] | binding affinity of TS1 T cell receptor (in words) (TS1 T cell receptor) | affinity of TS1(SW) TCR for S1 peptide, fold lower than that of the TS1 TCR (TS1(SW) T cell receptor [2])
1 | SFEKFEIFPKT [S1(SW) peptide] | ~0.05 | high affinity | low affinity |  |  |  |  |  | 
2 | SFERFEIFPKE [S1 peptide] |  |  |  | about 100 fold | low affinity | around 30 fold | > 1 | high affinity | approximately 100 fold
